# From US12558386B2, “Methods and compositions to modulate antibiotic resistance and gastrointestinal microbiota” (OHIO STATE INNOVATION FOUNDATION, priority 2018, dated 2026)
# Tests used:
# [1] = tested on: E. coli CA-1; assay: MIC assessment (TREK Sensititre); assay type: cell-based, Escherichia coli; details: Escherichia coli, CA1; E. coli CA-1; read-out: MIC
# Excerpt: Bacterial strains. Multiple Amp^r strains from feces of broiler chickens without antibiotic treatment were recovered on Columbia blood Agar base (Becton, […] Dickinson and Company, Franklin Lakes, NJ) supplemented with 5% defibrinated sheep blood (Thermo Scientific™, Grand Island, NY).
# Minimum inhibition concertation (MIC) assessment. A TREK Sensititre diagnostic system (Thermo scientific, Oakwood Village, OH, USA) was used to assess the AR phenotype and MIC of isolated strains. Protocols to use this system can be found on www.trekds.com. Cation-adjusted Mueller Hinton Broth (Becton, Dickinson and Company, MD, USA) was used as basic medium.
# [2] = tested on: fecal microbiota; assay: Chicken study, probiotics and ESBL E. coli followed by oral or injected Amp (FIG. 6); assay type: in vivo, chickens; details: Group 7 and Group 5, with or without ESBL E. coli inoculation
# Excerpt: FIGS. 6A and 6B show probiotics and ESBL inoculation on the profiles of poultry fecal microbiota followed by oral or injective antibiotic treatment. FIG. 6A) Phylum level; FIG. 6B) Class level. Group 1: probiotic cocktail treatment throughout, E coli exposure from Day 5 for 4 days and then oral Amp; Group 2: probiotic/peanut butter treatment throughout followed by E coli exposure and then oral Amp; Group 3: inoculated (E coli) then exposed to oral Amp, Group 4: noninoculated then exposed to oral Amp, Group 5: noninoculated then exposed to injective Amp, Group 6: noninoculated then exposed to saline; Group 7: inoculated (E coli) then exposed to injective Amp.
# It was recognized that even if antibiotic resistant bacteria may be reduced by probiotic treatment, some of those resistant bacteria seeds might still retain in the microbiota, and could pop up again when exposed to antibiotics. Therefore in another set of the experiment, following probiotic and ESBL E. coli exposure, the chickens were further treated with Amp by oral or muscle injection. […] But Probiotic treated chickens (Group 1 &2) retained more Firmicutes or Cynobacteria than chickens without probiotic treatment (Group 3 with inoculated ESBL E. coli & Group 4 natural flora, with one outlier). […]
# [3] = tested on: Amp^r (ESBL) Escherichia coli strains M9-1, M9-4, M9-12 and 933-36; assay: MIC of the Amp^r marker strains (previously identified); assay type: cell-based; details: antibiotic not given
# [4] = tested on: poultry gut microbiota; assay: Impact of ampicillin administration routes on poultry gut microbiota (FIG. 7); assay type: in vivo, chickens; details: Day 25
# Excerpt: (A) NI-Saline-PO; (B) NI-Amp-IM; (C) NI-Amp-PO; (D) Amp-IM; (E) Amp-PO.
# The impact of ampicillin administration routes and inoculation of Amp^r E. coli on poultry gut microbiota. FIG. 7A-B illustrates the impact of ampicillin application on gut microbiota of chickens. The data illustrated that without antibiotic application (FIG. 7A), Lactobacillus dominant, E. coli/Shegilla insignificant. […] The results clearly illustrated the major impact on oral ampicillin administration on poultry gut microbiota by diminishing Lactobacillus, increasing Clostridium, and massively increase […] due to Amp^r E. coli in inoculated chickens and Klebsiella in non-inoculated chickens.
smiles,measurement,setting,value
"CC1(C)S[C@@H]2[C@H](NC(=O)[C@H](N)c3ccccc3)C(=O)N2[C@H]1C(=O)O [AMP, ampicillin]",MIC,[1],> 16 µg/mL
same,"retention of Firmicutes, injection versus oral",[2],significant difference in retaining Firmicutes
same,MIC,[3],> 256 µg/mL
same,change of gut microbiota,"[4]; muscle injection, inoculated with E. coli cocktail (FIG. 7D)",Firmicutes still dominant but with which Lactobacillus drastically reduced
same,change of gut microbiota,"[4]; muscle injection, without inoculation of E. coli cocktail (FIG. 7B)",minimal changes
same,change of gut microbiota,"[4]; oral feeding, inoculated with E. coli cocktail (FIG. 7E)",Firmicutes changed from dominant to minority
same,change of gut microbiota,"[4]; oral, without inoculation of E. coli cocktail (FIG. 7C)",decrease of Firmicutes (still dominant) and significant increase of Proteobacteria
